Test system: 857933-349-R-J2-PDC complex spheroids, viability
Test: Anticancer human tumor 857933-349-R-J2-PDC patient-derived colon adenocarcinoma cell line growth inhibition [GQUAD]
Conditions: for IC50: curve of first compound; for viability, T/C: stronger effect = lower value
Summary of the method: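 Tumor cells were grown as complex spheroids with HUVEC endothelial cells and mesenchymal stem cells as stroma. G-quadruplex stabilizers were combined with targeted agents over half-log dilutions from near the clinical Cmax, or from 10 microM.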

[1] = second compound 0.0316 µM, first compound 0.0316 µM
[2] = second compound 0.0316 µM, first compound 0.316 µM
[3] = second compound 0.1 µM, first compound 0.0316 µM
[4] = second compound 0.1 µM, first compound 0.316 µM
[5] = second compound 0.316 µM, first compound 0.0316 µM
[6] = second compound 0.316 µM, first compound 0.316 µM
[7] = second compound 1 µM, first compound 0.0316 µM
[8] = second compound 1 µM, first compound 0.316 µM
[9] = second compound 3.16 µM, first compound 0.0316 µM
[10] = second compound 3.16 µM, first compound 0.316 µM
[11] = second compound 10 µM, first compound 0.0316 µM
[12] = second compound 10 µM, first compound 0.316 µM
[13] = second compound 0.0316 µM, first compound 0.1 µM
[14] = second compound 0.0316 µM, first compound 1 µM
[15] = second compound 0.0316 µM, first compound 3.16 µM
[16] = second compound 0.0316 µM, first compound 10 µM
[17] = second compound 0.1 µM, first compound 0.1 µM
[18] = second compound 0.1 µM, first compound 1 µM
[19] = second compound 0.1 µM, first compound 3.16 µM
[20] = second compound 0.1 µM, first compound 10 µM
[21] = second compound 0.316 µM, first compound 0.1 µM
[22] = second compound 0.316 µM, first compound 1 µM
[23] = second compound 0.316 µM, first compound 3.16 µM
[24] = second compound 0.316 µM, first compound 10 µM
[25] = second compound 1 µM, first compound 0.1 µM
[26] = second compound 1 µM, first compound 1 µM
[27] = second compound 1 µM, first compound 3.16 µM
[28] = second compound 1 µM, first compound 10 µM
[29] = second compound 3.16 µM, first compound 0.1 µM
[30] = second compound 3.16 µM, first compound 1 µM
[31] = second compound 3.16 µM, first compound 3.16 µM
[32] = second compound 3.16 µM, first compound 10 µM
[33] = second compound 10 µM, first compound 0.1 µM
[34] = second compound 10 µM, first compound 1 µM
[35] = second compound 10 µM, first compound 3.16 µM
[36] = second compound 10 µM, first compound 10 µM
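Further: spheroids exposed to compounds for one week before readout.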
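Wherever viability, T/C is given: percent viability relative to vehicle DMSO wells taken as 100%.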

`Cc1[nH]c2ccccc2c1CCNCc1ccc(/C=C/C(=O)NO)cc1` + CN(C)c1ccc(Nc2c3ccc(NC(=O)CCN4CCCC4)cc3nc3cc(NC(=O)CCN4CCCC4)ccc23)cc1 was tested, and the IC50 (second compound 0.0316 µM) was greater than 316 nM, the IC50 (second compound 0.1 µM) was greater than 316 nM and the IC50 (second compound 0.316 µM) was greater than 316 nM. It also gave an IC50 (second compound 1 µM) greater than 316 nM, an IC50 (second compound 3.16 µM) greater than 316 nM and an IC50 (second compound 10 µM) greater than 316 nM. It also gave a viability, T/C (second compound 0.0316 µM, first compound 0.000999 µM) of 105%, a viability, T/C (second compound 0.0316 µM, first compound 0.00316 µM) of 99.6% and a viability, T/C (second compound 0.0316 µM, first compound 0.00999 µM) of 109%. For the same compound, the viability, T/C [1] was 101%, the viability, T/C (second compound 0.0316 µM, first compound 0.0999 µM) was 109% and the viability, T/C [2] was 60.2%. For the same compound, the viability, T/C (second compound 0.1 µM, first compound 0.000999 µM) was 105%, the viability, T/C (second compound 0.1 µM, first compound 0.00316 µM) was 102% and the viability, T/C (second compound 0.1 µM, first compound 0.00999 µM) was 99.3%. It also gave a viability, T/C [3] of 103%, a viability, T/C (second compound 0.1 µM, first compound 0.0999 µM) of 101% and a viability, T/C [4] of 61.5%. For the same compound, the viability, T/C (second compound 0.316 µM, first compound 0.000999 µM) was 104%, the viability, T/C (second compound 0.316 µM, first compound 0.00316 µM) was 103% and the viability, T/C (second compound 0.316 µM, first compound 0.00999 µM) was 103%. It also gave a viability, T/C [5] of 99.8%, a viability, T/C (second compound 0.316 µM, first compound 0.0999 µM) of 117% and a viability, T/C [6] of 60.5%. For the same compound, the viability, T/C (second compound 1 µM, first compound 0.000999 µM) was 97.1%, the viability, T/C (second compound 1 µM, first compound 0.00316 µM) was 91.7% and the viability, T/C (second compound 1 µM, first compound 0.00999 µM) was 95.7%. For the same compound, the viability, T/C [7] was 97.9%, the viability, T/C (second compound 1 µM, first compound 0.0999 µM) was 105% and the viability, T/C [8] was 59.5%. The viability, T/C (second compound 3.16 µM, first compound 0.000999 µM) was 80.6%, the viability, T/C (second compound 3.16 µM, first compound 0.00316 µM) was 79.8% and the viability, T/C (second compound 3.16 µM, first compound 0.00999 µM) was 93.5%. For the same compound, the viability, T/C [9] was 80.6%, the viability, T/C (second compound 3.16 µM, first compound 0.0999 µM) was 91.7% and the viability, T/C [10] was 55.1%. For the same compound, the viability, T/C (second compound 10 µM, first compound 0.000999 µM) was 64%, the viability, T/C (second compound 10 µM, first compound 0.00316 µM) was 73.2% and the viability, T/C (second compound 10 µM, first compound 0.00999 µM) was 70%. For the same compound, the viability, T/C [11] was 76.4%, the viability, T/C (second compound 10 µM, first compound 0.0999 µM) was 72.2% and the viability, T/C [12] was 41.7%.

For `Nc1ccn(C2OC(CO)C(O)C2(F)F)c(=O)n1` (stereo unspecified) + CN(C)c1ccc(Nc2c3ccc(NC(=O)CCN4CCCC4)cc3nc3cc(NC(=O)CCN4CCCC4)ccc23)cc1, the IC50 (second compound 0.0316 µM) was 366 nM, the IC50 (second compound 0.1 µM) was 383 nM and the IC50 (second compound 0.316 µM) was 357 nM. It also gave an IC50 (second compound 1 µM) of 379 nM, an IC50 (second compound 3.16 µM) of 497 nM and an IC50 (second compound 10 µM) of 639 nM. The viability, T/C [1] was 99.8%, the viability, T/C [13] was 78.5% and the viability, T/C [2] was 56.7%. The viability, T/C [14] was 26.6%, the viability, T/C [15] was 15.5% and the viability, T/C [16] was 16.1%. It also gave a viability, T/C [3] of 98.8%, a viability, T/C [17] of 81.3% and a viability, T/C [4] of 58.3%. For the same compound, the viability, T/C [18] was 22.9%, the viability, T/C [19] was 15% and the viability, T/C [20] was 15.7%. For the same compound, the viability, T/C [5] was 98.5%, the viability, T/C [21] was 81.3% and the viability, T/C [6] was 57%. For the same compound, the viability, T/C [22] was 18.1%, the viability, T/C [23] was 14.6% and the viability, T/C [24] was 15.6%. For the same compound, the viability, T/C [7] was 97%, the viability, T/C [25] was 77.3% and the viability, T/C [8] was 60%. For the same compound, the viability, T/C [26] was 19.4%, the viability, T/C [27] was 16.6% and the viability, T/C [28] was 14.5%. The viability, T/C [9] was 83.2%, the viability, T/C [29] was 75.9% and the viability, T/C [10] was 65.2%. It also gave a viability, T/C [30] of 27%, a viability, T/C [31] of 18.3% and a viability, T/C [32] of 16.5%. For the same compound, the viability, T/C [11] was 73.8%, the viability, T/C [33] was 73.4% and the viability, T/C [12] was 60.7%. For the same compound, the viability, T/C [34] was 43.8%, the viability, T/C [35] was 24.3% and the viability, T/C [36] was 21.8%.

`O=c1[nH]cc(F)c(=O)[nH]1` + CN(C)c1ccc(Nc2c3ccc(NC(=O)CCN4CCCC4)cc3nc3cc(NC(=O)CCN4CCCC4)ccc23)cc1 was tested, and the IC50 (second compound 0.0316 µM) was 7510 nM, the IC50 (second compound 0.1 µM) was 9410 nM and the IC50 (second compound 0.316 µM) was 8130 nM. The IC50 (second compound 1 µM) was 7140 nM, the IC50 (second compound 3.16 µM) was 7560 nM and the IC50 (second compound 10 µM) was 9080 nM. For the same compound, the viability, T/C [1] was 104%, the viability, T/C [13] was 96.8% and the viability, T/C [2] was 97%. The viability, T/C [14] was 88.7%, the viability, T/C [15] was 60.6% and the viability, T/C [16] was 46.5%. The viability, T/C [3] was 103%, the viability, T/C [17] was 105% and the viability, T/C [4] was 91.7%. It also gave a viability, T/C [18] of 86.4%, a viability, T/C [19] of 61.3% and a viability, T/C [20] of 50%. For the same compound, the viability, T/C [5] was 102%, the viability, T/C [21] was 96.7% and the viability, T/C [6] was 100%. It also gave a viability, T/C [22] of 83.7%, a viability, T/C [23] of 64.8% and a viability, T/C [24] of 46.7%. For the same compound, the viability, T/C [7] was 95.3%, the viability, T/C [25] was 91.8% and the viability, T/C [8] was 95.6%. For the same compound, the viability, T/C [26] was 77.7%, the viability, T/C [27] was 63.6% and the viability, T/C [28] was 44.6%. It also gave a viability, T/C [9] of 92.9%, a viability, T/C [29] of 80% and a viability, T/C [10] of 92.7%. It also gave a viability, T/C [30] of 75.1%, a viability, T/C [31] of 61.7% and a viability, T/C [32] of 46.3%. The viability, T/C [11] was 70.9%, the viability, T/C [33] was 78.9% and the viability, T/C [12] was 77.2%. The viability, T/C [34] was 74.4%, the viability, T/C [35] was 61.4% and the viability, T/C [36] was 49%.
